The source of these data is the PolyMetriX glass transition set.

With `*C(=O)Nc1ccc(Oc2ccc(-c3ccc(Oc4ccc(NC(=O)c5ccc6c(c5)C(=O)N(c5ccc(Oc7cccc8c(Oc9ccc(N%10C(=O)c%11ccc(*)cc%11C%10=O)cc9)cccc78)cc5)C6=O)cc4)cc3)cc2)cc1` (repeat unit), the glass transition temperature turned out to be 310.00 °C.

On to `*C(=O)Nc1ccc(Oc2ccc(-c3ccc(Oc4ccc(NC(=O)c5ccc6c(c5)C(=O)N(c5ccc(Oc7ccccc7-c7ccccc7Oc7ccc(N8C(=O)c9ccc(*)cc9C8=O)cc7)cc5)C6=O)cc4)cc3)cc2)cc1` (repeat unit), for which the glass transition temperature stood at 254.00 °C. Molecule `*C(=O)Nc1ccc(Oc2ccc(C(c3ccc(Oc4ccc(NC(=O)c5ccc6c(c5)C(=O)N(c5ccc(Oc7ccc(C8(c9ccc(Oc%10ccc(N%11C(=O)c%12ccc(*)cc%12C%11=O)cc%10)cc9)CC9CC8C8CCCC98)cc7)cc5)C6=O)cc4)cc3)(C(F)(F)F)C(F)(F)F)cc2)cc1` (repeat unit) came in with a glass transition temperature of 254.00 °C.

In turn, `*C(=O)Nc1ccc(Oc2ccc(C3(c4ccc(Oc5ccc(NC(=O)c6ccc7c(c6)C(=O)N(c6ccc(Oc8ccc(C9(c%10ccc(Oc%11ccc(N%12C(=O)c%13ccc(*)cc%13C%12=O)cc%11)cc%10)NC(=O)c%10ccccc%109)cc8)cc6)C7=O)cc5)cc4)NC(=O)c4ccccc43)cc2)cc1` (repeat unit) registered a glass transition temperature of 330.00 °C. For `*C(=O)Nc1ccc(Oc2ccc(C3(c4ccc(Oc5ccc(NC(=O)c6ccc7c(c6)C(=O)N(c6cccc(N8C(=O)c9ccc(*)cc9C8=O)c6)C7=O)cc5)cc4)NC(=O)c4ccccc43)cc2)cc1` (repeat unit) the value was 320.00 °C; for `*C(=O)Nc1ccc(Oc2ccc(N3C(=O)c4ccc(*)cc4C3=O)cc2)cc1` (repeat unit), 295.00 °C; for `*C(=O)Nc1ccc(Oc2ccc(NC(=O)c3ccc4c(c3)C(=O)N(C3CCC(CC5CCC(N6C(=O)c7ccc(*)cc7C6=O)CC5)CC3)C4=O)cc2)cc1` (repeat unit), 250.00 °C. `*C(=O)Nc1ccc(Oc2ccc(NC(=O)c3ccc4c(c3)C(=O)N(c3ccc(Oc5ccc(C6(c7ccc(Oc8ccc(N9C(=O)c%10ccc(*)cc%10C9=O)cc8)cc7)NC(=O)c7ccccc76)cc5)cc3)C4=O)cc2)cc1` (repeat unit) yielded a glass transition temperature of 325.00 °C.

`*C(=O)Nc1ccc(Oc2ccc(NC(=O)c3ccc4c(c3)C(=O)N(c3ccc(Oc5cccc6c(N7C(=O)c8ccc(*)cc8C7=O)cccc56)cc3)C4=O)cc2)cc1` (repeat unit) came in with a glass transition temperature of 278.00 °C. Turning to `*C(=O)Nc1ccc(Oc2ccc(NC(=O)c3ccc4c(c3)C(=O)N(c3cccc(P(=O)(c5ccccc5)c5cccc(N6C(=O)c7ccc(*)cc7C6=O)c5)c3)C4=O)cc2)cc1` (repeat unit), the glass transition temperature is 235.00 °C. In the case of `*Cc1ccc2oc(=O)c(C(=O)Nc3ccc(Oc4ccc(C(c5ccc(Oc6ccc(NC(=O)c7cc8cc(*)ccc8oc7=O)cc6)cc5)(C(F)(F)F)C(F)(F)F)cc4)cc3)cc2c1` (repeat unit), the glass transition temperature amounted to 283.00 °C. As to `*Cc1ccc2oc(=O)c(C(=O)Nc3ccc(Oc4ccc(NC(=O)c5cc6cc(*)ccc6oc5=O)cc4)cc3)cc2c1` (repeat unit), the glass transition temperature worked out at 312.00 °C. Consider `*Cc1ccc2oc(=O)c(C(=O)Nc3ccc(Oc4ccc(Oc5ccc(NC(=O)c6cc7cc(*)ccc7oc6=O)cc5)cc4)cc3)cc2c1` (repeat unit), for which the glass transition temperature came to 290.00 °C. With `*Nc1ccc(Oc2ccc(Nc3ccc4c(c3)c3cc(*)ccc3n4CC(CC)CCCC)cc2)cc1` (repeat unit), the glass transition temperature worked out at 220.00 °C.

`*Oc1ccc(-c2ccc(Oc3ccc(C(=O)c4ccc(C(=O)c5ccc(*)cc5)cc4)cc3)cc2)cc1` (repeat unit) gave a glass transition temperature of 173.00 °C. `*Oc1ccc(C2(c3ccc(Oc4ccc(C(=O)c5ccc(C(=O)c6ccc(*)cc6)cc5)cc4)cc3)c3ccccc3-c3ccccc32)cc1` (repeat unit): the glass transition temperature was 243.00 °C.

On to `*Oc1ccc(NC(=C(C#N)C#N)c2ccc(-c3ccc(C(Nc4ccc(*)cc4)=C(C#N)C#N)cc3)cc2)cc1` (repeat unit), for which the glass transition temperature was 220.00 °C. In turn, `*Oc1ccc(NC(=C(C#N)C#N)c2cccc(C(Nc3ccc(Oc4ccc(NC(=O)c5ccc(C(=O)Nc6ccc(*)cc6)cc5)cc4)cc3)=C(C#N)C#N)c2)cc1` (repeat unit) showed a glass transition temperature of 274.00 °C. `*Oc1ccc(NC(=O)c2cc(C(=O)Nc3ccc(Oc4ccc(C(c5ccc(*)cc5)(C(F)(F)F)C(F)(F)F)cc4)cc3)cc([N+](=O)[O-])c2)cc1` (repeat unit) displayed a glass transition temperature of 232.00 °C. `*Oc1ccc(NC(=O)c2ccc(*)cc2)cc1` (repeat unit): the glass transition temperature was 225.00 °C. For `*Oc1ccc(NC(=O)c2ccc(C(=O)Nc3ccc(Oc4ccc(C(c5ccc(*)cc5)(C(F)(F)F)C(F)(F)F)cc4)cc3)cc2)cc1` (repeat unit) the value was 243.00 °C; for `*Oc1ccc(NC(=O)c2ccc(C(=O)Nc3ccc(Oc4ccc(C5(c6ccc(*)cc6)C6CC7CC(C6)CC5C7)cc4)cc3)c3ccccc23)cc1` (repeat unit), 269.00 °C; for `*Oc1ccc(NC(=O)c2ccc(C(=O)Nc3ccc(Oc4ccc(C5(c6ccc(*)cc6)C6CC7CC(C6)CC5C7)cc4)cc3)cc2)cc1` (repeat unit), 264.00 °C. The figure for `*Oc1ccc(NC(=O)c2ccc(Oc3ccc(C(=O)Nc4ccc(*)cc4)cc3)cc2)cc1` (repeat unit) is 274.00 °C; for `*Oc1ccc(NC(=O)c2cccc(C(=O)Nc3ccc(Oc4ccc(C5(c6ccc(*)cc6)C6CC7CC(C6)CC5C7)cc4)cc3)c2)cc1` (repeat unit) it is 273.00 °C; for `*Oc1ccc(Nc2ccc(/N=N/c3ccc(Nc4ccc(*)cc4)cc3)cc2)cc1` (repeat unit) it is 169.00 °C. As to `*Oc1ccc(Oc2ccc(C(=O)Nc3ccc(Oc4ccc(NC(=O)c5ccc(*)cc5)cc4)cc3)cc2)cc1-c1ccccc1` (repeat unit), the glass transition temperature came out at 219.00 °C.

For `*Oc1ccc(Oc2ccc(NC(=C(C#N)C#N)c3cccc(C(Nc4ccc(*)cc4)=C(C#N)C#N)c3)cc2)cc1` (repeat unit), the glass transition temperature is 228.00 °C. `*Oc1ccc(Oc2ccc(NC(=O)c3ccc(Oc4ccc(Oc5ccc(C(=O)Nc6ccc(*)cc6)cc5)cc4)cc3)cc2)cc1` (repeat unit) yielded a glass transition temperature of 236.00 °C. Regarding `*Oc1ccc2ccc(Oc3ccc(C(=O)Nc4ccc(Oc5ccc(C(c6ccc(Oc7ccc(NC(=O)c8ccc(*)cc8)cc7)cc6)(C(F)(F)F)C(F)(F)F)cc5)cc4)cc3)cc2c1` (repeat unit), the glass transition temperature came out at 163.00 °C.

With `*Oc1ccc2ccc(Oc3ccc(C(=O)Nc4ccc(Oc5ccc(Oc6ccc(NC(=O)c7ccc(*)cc7)cc6)cc5)cc4)cc3)cc2c1` (repeat unit), the glass transition temperature was determined as 191.00 °C.

Molecule `*Oc1cccc(NC(=O)c2cccc(C(=O)Nc3ccc(Oc4ccc(C(=O)c5ccc(*)cc5)cc4)cc3)c2)c1` (repeat unit) showed a glass transition temperature of 114.00 °C. `*c1ccc(C(=O)Nc2ccc(Oc3ccc(NC(=O)c4ccc(-n5c(=O)c6cc7c(=O)n(*)c(=O)c7cc6c5=O)cc4)cc3)cc2)cc1` (repeat unit): the glass transition temperature was determined as 360.00 °C. For `*c1ccc(C(=O)Nc2ccc(Oc3ccc(NC(=O)c4ccc(Oc5ccc(-c6nn(*)c(=O)c7ccccc67)cc5)cc4)cc3)cc2)cc1` (repeat unit), the glass transition temperature was found to be 280.00 °C. The figure for `*c1ccc(Oc2ccc(C(=O)c3ccc(C(=O)c4ccc(Oc5ccc(-c6cc(*)[nH]n6)cc5)cc4)cc3)cc2)cc1` (repeat unit) is 235.00 °C; for `*c1ccc(Oc2ccc(C(=O)c3ccc(C(=O)c4ccc(Oc5ccc(-c6nc(-c7cccc(-c8nc(*)c(-c9ccccc9)[nH]8)c7)[nH]c6-c6ccccc6)cc5)cc4)cc3)cc2)cc1` (repeat unit) it is 262.00 °C; for `*c1ccc(Oc2ccc(C(=O)c3ccc(C(=O)c4ccc(Oc5ccc(-c6nc(-c7ccccc7)[nH]c6*)cc5)cc4)cc3)cc2)cc1` (repeat unit) it is 248.00 °C. As for `*c1ccc(Oc2ccc(NC(=O)c3ccc4c(c3)C(=O)N(c3ccc(Sc5ccc(N6C(=O)c7ccc(C(=O)Nc8ccc(Oc9ccc(C%10(*)NC(=O)c%11ccccc%11%10)cc9)cc8)cc7C6=O)cc5)cc3)C4=O)cc2)cc1` (repeat unit), the glass transition temperature is 298.00 °C. The figure for `*c1ccc(Oc2ccc(NC(=O)c3cccc(C(=O)Nc4ccc(Oc5ccc(-n6c(=O)c7cc8c(=O)n(*)c(=O)c8cc7c6=O)cc5)cc4)c3)cc2)cc1` (repeat unit) is 282.00 °C; for `*c1ccc(Oc2ccc(NC(=O)c3cccc(Oc4ccc5c(c4)C(=O)N(*)C5=O)c3)cc2)cc1` (repeat unit) it is 231.00 °C; for `*c1ccc(Oc2ccc3ccccc3c2-c2c(Oc3ccc(N4C(=O)c5ccc(NC(=O)Nc6ccc(Oc7ccc(NC(=O)Nc8ccc9c(c8)C(=O)N(*)C9=O)cc7)cc6)cc5C4=O)cc3)ccc3ccccc23)cc1` (repeat unit) it is 274.00 °C. In turn, `*c1ccc2c(c1)C(=O)N(c1ccc(C(=O)Nc3ccc(Oc4ccc(Oc5ccc(NC(=O)c6ccc(N7C(=O)c8ccc(C(*)(C(F)(F)F)C(F)(F)F)cc8C7=O)cc6)cc5)cc4)cc3)cc1)C2=O` (repeat unit) registered a glass transition temperature of 303.00 °C.

`*c1ccc2c(c1)C(=O)N(c1cccc(C(=O)Nc3ccc(Oc4ccc(-c5ccc(Oc6ccc(NC(=O)c7cccc(N8C(=O)c9ccc(C(*)(C(F)(F)F)C(F)(F)F)cc9C8=O)c7)cc6)cc5)cc4)cc3)c1)C2=O` (repeat unit) displayed a glass transition temperature of 280.00 °C. For `*c1cccc(C(=O)Nc2ccc(Oc3ccc(-c4ccc(Oc5ccc(NC(=O)c6cccc(N7C(=O)c8ccc(-c9cccc%10c9C(=O)N(*)C%10=O)cc8C7=O)c6)cc5)cc4)cc3)cc2)c1` (repeat unit) the value was 275.00 °C. For `*c1cccc(C(=O)Nc2ccc(Oc3ccc(NC(=O)c4cccc(N5C(=O)c6ccc(-c7cccc8c7C(=O)N(*)C8=O)cc6C5=O)c4)cc3)cc2)c1` (repeat unit) the value was 291.00 °C.
